Experimental data from US12692262B2, “Substituted ureas as orexin receptor agonists” (Merck Sharp & Dohme LLC, priority 2020, dated 2026).

Target: T1, human OX2R (Homo sapiens, UniProt O43614)
T1 construct: expressed in transfected cells; host or cells: CHO (Chinese hamster ovary) cells grown under G418 selection
T1 sequence (O43614 1-444): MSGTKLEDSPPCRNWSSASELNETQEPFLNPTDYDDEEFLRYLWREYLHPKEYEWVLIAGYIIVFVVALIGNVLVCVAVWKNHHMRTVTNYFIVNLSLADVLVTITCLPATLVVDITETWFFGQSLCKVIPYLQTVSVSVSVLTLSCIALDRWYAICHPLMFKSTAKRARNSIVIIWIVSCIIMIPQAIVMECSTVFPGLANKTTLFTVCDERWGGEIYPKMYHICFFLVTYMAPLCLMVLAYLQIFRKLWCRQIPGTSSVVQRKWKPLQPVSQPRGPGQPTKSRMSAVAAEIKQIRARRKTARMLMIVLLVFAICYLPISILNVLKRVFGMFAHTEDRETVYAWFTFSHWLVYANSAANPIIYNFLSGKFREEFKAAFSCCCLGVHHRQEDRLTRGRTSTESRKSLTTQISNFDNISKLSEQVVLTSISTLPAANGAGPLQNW
Test: IPOne (IP-1 accumulation) assay in CHO cells expressing human OX2R
Assay type: cell-based
Conditions: for EC50: CHO cells expressing human OX2R, IP-One assay, 2 h incubation, four parameter logistic fit, read-out: OX2R Potency, EC50; for % of maximum agonist effect (relative to Orexin A): percent effect vs mean max effect of a reference compound at 1 uM (100% activity vs Orexin A), human OX2R
From the text: The utility of the compounds in accordance with the present invention as orexin receptor OX1R and/or OX2R agonists may be readily determined without undue experimentation by methodology well known in the art. Both the OX1R and/or OX2R G-coupled protein receptors (GPCRs) couple through the Gαq signaling pathway, which ultimately promotes calcium mobilization via inositol triphosphate (IP3) production. […] The utility of the compounds in accordance with the present invention as orexin receptor OX1R and/or OX2R agonists may be determined utilizing this assay.
In a typical experiment, the OX1 and OX2 receptor agonist activity is determined in accordance with the following general experimental method. Chinese hamster ovary (CHO) cells expressing human OX1R and/or the human OX2R were grown in Iscove's modified DMEM containing glutaMAX™, 1% G418, 100 U/mL penicillin, 100 μg/mL streptomycin and 10% heat-inactivated qualified fetal bovine serum (FBS). […] During this incubation, IP-one detection reagents were prepared (38:1:1 lysis buffer:D2:AB-cryptate reagents).
For each compound, data were fit to a four parameter logistic fit (ActivityBase software) and the EC50 was reported as the inflection point of the resulting curve. […] The intrinsic orexin receptor agonist activity of a compound which may be used in the present invention may be determined by these assays.

Compound	EC50	% of maximum agonist effect (relative to Orexin A)
CCN(C(=O)N[C@@H](CCC(F)(F)F)C(F)(F)F)[C@@H](c1cc(-c2nc(OC)c3nccn3n2)c(OC)cn1)C(F)(F)F [Example 9-11, 1-ethyl-3-((S)-1,1,1,5,5,5-hexafluoropentan-2-yl)-1-((S)-2,2,2-trifluoro-1-(5-methoxy-4-(4-methoxyimidazo[2,1-f][1,2,4]triazin-2-yl)pyridin-2-yl)ethyl)urea]	2.6 nM	99.5%
CCN(C(=O)NC(CN(C)C)C(F)(F)F)[C@H](C)c1cccc(-c2cc(OC)n3nccc3c2)c1 (stereo partly drawn) [Example 1-13, 3-(3-(dimethylamino)-1,1,1-trifluoropropan-2-yl)-1-ethyl-1-((R)-1-(3-(7-methoxypyrazolo[1,5-a]pyridin-5-yl)phenyl)ethyl)urea]	146 nM	80.7%
CC[C@H](NC(=O)N(CC)C(c1cc(-c2cn3ccnc3c(OC)n2)c(OC)cn1)C(F)(F)F)C(F)(F)F (stereo partly drawn) [Example 2-8, 1-ethyl-1-(2,2,2-trifluoro-1-(5-methoxy-4-(8-methoxyimidazo[1,2-a]pyrazin-6-yl)pyridin-2-yl)ethyl)-3-((S)-1,1,1-trifluorobutan-2-yl)urea]	13.3 nM	100.0%
CCN(C(=O)NC1CC(C(F)(F)F)C1)[C@@H](c1cc(-c2cn3ccnc3c(OC)n2)c(OC)cn1)C(F)(F)F (stereo partly drawn) [Example 2-38, (S)-1-ethyl-1-(2,2,2-trifluoro-1-(5-methoxy-4-(8-methoxyimidazo[1,2-a]pyrazin-6-yl)pyridin-2-yl)ethyl)-3-(3-(trifluoromethyl)cyclobutyl)urea]	4.2 nM	99.7%
CCN(C(=O)NC(C#N)C1CCCC1)[C@H](C)c1cccc(-c2cn3ccnc3c(OC)n2)c1 (stereo partly drawn) [Example 1-10, 3-(cyano(cyclopentyl)methyl)-1-ethyl-1-((R)-1-(3-(8-methoxyimidazo[1,2-a]pyrazin-6-yl)phenyl)ethyl)urea]	8.3 nM	101.0%
COc1nc(-c2cccc(C(C)N(CC(F)F)C(=O)N[C@@H](CCC(F)(F)F)C(F)(F)F)c2)cn2ccnc12 (stereo partly drawn) [Example 2-61, 1-(2,2-difluoroethyl)-3-((S)-1,1,1,5,5,5-hexafluoropentan-2-yl)-1-(1-(3-(8-methoxyimidazo[1,2-a]pyrazin-6-yl)phenyl)ethyl)urea]	5.8 nM	99.5%
CCN(C(=O)N[C@@H](CCC(F)(F)F)C(F)(F)F)[C@@H](c1cc(-c2cn3ccnc3c(OC)n2)c(OC)cn1)C(F)(F)F [Example 10-1, 1-ethyl-3-((S)-1,1,1,5,5,5-hexafluoropentan-2-yl)-1-((S)-2,2,2-trifluoro-1-(5-methoxy-4-(8-methoxyimidazo[1,2-a]pyrazin-6-yl)pyridin-2-yl)ethyl)urea]	1.1 nM	100.4%
CCNC(=O)N(CC)[C@H](C)c1cccc(-c2cc(OC)c3nccn3c2)c1 [Example 2-68, (R)-1,3-diethyl-1-(1-(3-(8-methoxyimidazo[1,2-a]pyridin-6-yl)phenyl)ethyl)urea]	179 nM	83.3%
CCN(C(=O)NC(C)C)[C@@H](c1cc(-c2cn3ccnc3c(OC)n2)c(OC)cn1)C(F)(F)F [Example 2-29, (S)-1-ethyl-3-isopropyl-1-(2,2,2-trifluoro-1-(5-methoxy-4-(8-methoxyimidazo[1,2-a]pyrazin-6-yl)pyridin-2-yl)ethyl)urea]	23.8 nM	96.0%
CCN(C(=O)NC(C1CCOCC1)C(F)(F)F)[C@@H](c1cc(-c2cn3cc(C)nc3c(OC)n2)c(OC)cn1)C(F)(F)F (stereo partly drawn) [Example 2-48, 1-ethyl-1-((S)-2,2,2-trifluoro-1-(5-methoxy-4-(8-methoxy-2-methylimidazo[1,2-a]pyrazin-6-yl)pyridin-2-yl)ethyl)-3-(2,2,2-trifluoro-1-(tetrahydro-2H-pyran-4-yl)ethyl)urea]	17.6 nM	101.0%
CCN(C(=O)N[C@@H](C)C(F)(F)F)[C@@H](c1cc(-c2cn3ccnc3c(OC)n2)c(OC)cn1)C(F)(F)F [Example 2-1, 1-ethyl-1-((S)-2,2,2-trifluoro-1-(5-methoxy-4-(8-methoxyimidazo[1,2-a]pyrazin-6-yl)pyridin-2-yl)ethyl)-3-((S)-1,1,1-trifluoropropan-2-yl)urea]	6.8 nM	100.1%
CCN(C(=O)N[C@@H](CC1CC1)C(F)(F)F)[C@@H](c1cc(-c2cn3cc(C)nc3c(OC)n2)c(OC)cn1)C(F)(F)F [Example 3-5, 3-((S)-3-cyclopropyl-1,1,1-trifluoropropan-2-yl)-1-ethyl-1-((S)-2,2,2-trifluoro-1-(5-methoxy-4-(8-methoxy-2-methylimidazo[1,2-a]pyrazin-6-yl)pyridin-2-yl)ethyl)urea]	40.5 nM	99.3%
CC[C@H](CCC(F)(F)F)NC(=O)N(CC)C(C)(C)c1cccc(-c2ccc3nccn3c2)c1 [Example 18, (R)-1-ethyl-1-(2-(3-(imidazo[1,2-a]pyridin-6-yl)phenyl)propan-2-yl)-3-(6,6,6-trifluorohexan-3-yl)urea]	126 nM	99.6%
C#CC(CCC(F)(F)F)NC(=O)N(CC)[C@H](C)c1cccc(-c2cn3ccnc3c(OC)n2)c1 (stereo partly drawn) [Example 2-65, 1-ethyl-1-((R)-1-(3-(8-methoxyimidazo[1,2-a]pyrazin-6-yl)phenyl)ethyl)-3-(6,6,6-trifluorohex-1-yn-3-yl)urea]	4 nM	100.1%
CCN(C(=O)N[C@@H](CCC(F)(F)F)C(F)(F)F)C(c1cc(-c2cc(OC)c3nccnc3c2)c(OC)cn1)C(F)(F)F (stereo partly drawn) [Example 10-13, 1-ethyl-3-((S)-1,1,1,5,5,5-hexafluoropentan-2-yl)-1-(2,2,2-trifluoro-1-(5-methoxy-4-(8-methoxyquinoxalin-6-yl)pyridin-2-yl)ethyl)urea]	132 nM	101.7%
CC[C@H](CCC(F)F)NC(=O)N(CC)[C@@H](c1cc(-c2cn3cc(C)nc3c(OC)n2)c(OC)cn1)C(F)(F)F [Example 6-1, 3-((R)-6,6-difluorohexan-3-yl)-1-ethyl-1-((S)-2,2,2-trifluoro-1-(5-methoxy-4-(8-methoxy-2-methylimidazo[1,2-a]pyrazin-6-yl)pyridin-2-yl)ethyl)urea]	22.6 nM	101.0%
CCOC(=O)CC(NC(=O)N(CC)[C@H](C)c1cccc(-c2cn3ccnc3c(OC)n2)c1)C(F)(F)F (stereo partly drawn) [Example 1-11, ethyl 3-(3-ethyl-3-((R)-1-(3-(8-methoxyimidazo[1,2-a]pyrazin-6-yl)phenyl)ethyl)ureido)-4,4,4-trifluorobutanoate]	20.1 nM	98.0%
CCN(C(=O)NC(CCC(F)(F)F)C1CCO1)[C@@H](c1cc(-c2cn3ccnc3c(OC)n2)c(OC)cn1)C(F)(F)F (stereo partly drawn) [Example 2-45, 1-ethyl-1-((S)-2,2,2-trifluoro-1-(5-methoxy-4-(8-methoxyimidazo[1,2-a]pyrazin-6-yl)pyridin-2-yl)ethyl)-3-(4,4,4-trifluoro-1-(oxetan-2-yl)butyl)urea]	1.9 nM	99.8%
CCN(C(=O)N[C@@H](CCC(F)=C(F)F)C(F)(F)F)[C@@H](c1cc(-c2cn3cc(C)nc3c(OC)n2)c(OC)cn1)C(F)(F)F [Example 3-4, 1-ethyl-3-((S)-1,1,1,5,6,6-hexafluorohex-5-en-2-yl)-1-((S)-2,2,2-trifluoro-1-(5-methoxy-4-(8-methoxy-2-methylimidazo[1,2-a]pyrazin-6-yl)pyridin-2-yl)ethyl)urea]	27.8 nM	100.5%
CCN(C(=O)N[C@@H](CCC(F)(F)F)C(F)(F)F)C(c1cc(-c2cc(OC)c3nc(C#N)cn3c2)c(OC)cn1)C(F)(F)F (stereo partly drawn) [Example 10-7, 1-(1-(4-(2-cyano-8-methoxyimidazo[1,2-a]pyridin-6-yl)-5-methoxypyridin-2-yl)-2,2,2-trifluoroethyl)-1-ethyl-3-((S)-1,1,1,5,5,5-hexafluoropentan-2-yl)urea]	1.5 nM	102.7%
CCN(C(=O)NC(C1CC(F)(F)CCO1)C(F)(F)F)[C@H](C)c1cccc(-c2cn3ccnc3c(OC)n2)c1 (stereo partly drawn) [Example 2-33, 3-(1-(4,4-difluorotetrahydro-2H-pyran-2-yl)-2,2,2-trifluoroethyl)-1-ethyl-1-((R)-1-(3-(8-methoxyimidazo[1,2-a]pyrazin-6-yl)phenyl)ethyl)urea]	0.8 nM	101.6%
